Literature values as cited in publication PMC9516332 (Frontiers in Oncology, 2022).
Read-outs that look alike come from different tables or passages of the source.

Legend:
[1] = biological target: panel of 255 wild-type kinases (Homo sapiens, UniProt O14578); conditions: kinase CRIK, 1 µmol/L single concentration, cited from earlier work
[2] = biological target: panel of 255 wild-type kinases (Homo sapiens, UniProt P05129); conditions: kinase PKCγ, 1 µmol/L single concentration, cited from earlier work
[3] = biological target: panel of 255 wild-type kinases (Homo sapiens, UniProt P07333); conditions: kinase FMS, 1 µmol/L single concentration, cited from earlier work
[4] = biological target: T1, panel of 255 wild-type kinases (Homo sapiens, UniProt P54753); conditions: kinase EPHB3, 1 µmol/L single concentration, cited from earlier work
T1 sequence (P54753 34-998): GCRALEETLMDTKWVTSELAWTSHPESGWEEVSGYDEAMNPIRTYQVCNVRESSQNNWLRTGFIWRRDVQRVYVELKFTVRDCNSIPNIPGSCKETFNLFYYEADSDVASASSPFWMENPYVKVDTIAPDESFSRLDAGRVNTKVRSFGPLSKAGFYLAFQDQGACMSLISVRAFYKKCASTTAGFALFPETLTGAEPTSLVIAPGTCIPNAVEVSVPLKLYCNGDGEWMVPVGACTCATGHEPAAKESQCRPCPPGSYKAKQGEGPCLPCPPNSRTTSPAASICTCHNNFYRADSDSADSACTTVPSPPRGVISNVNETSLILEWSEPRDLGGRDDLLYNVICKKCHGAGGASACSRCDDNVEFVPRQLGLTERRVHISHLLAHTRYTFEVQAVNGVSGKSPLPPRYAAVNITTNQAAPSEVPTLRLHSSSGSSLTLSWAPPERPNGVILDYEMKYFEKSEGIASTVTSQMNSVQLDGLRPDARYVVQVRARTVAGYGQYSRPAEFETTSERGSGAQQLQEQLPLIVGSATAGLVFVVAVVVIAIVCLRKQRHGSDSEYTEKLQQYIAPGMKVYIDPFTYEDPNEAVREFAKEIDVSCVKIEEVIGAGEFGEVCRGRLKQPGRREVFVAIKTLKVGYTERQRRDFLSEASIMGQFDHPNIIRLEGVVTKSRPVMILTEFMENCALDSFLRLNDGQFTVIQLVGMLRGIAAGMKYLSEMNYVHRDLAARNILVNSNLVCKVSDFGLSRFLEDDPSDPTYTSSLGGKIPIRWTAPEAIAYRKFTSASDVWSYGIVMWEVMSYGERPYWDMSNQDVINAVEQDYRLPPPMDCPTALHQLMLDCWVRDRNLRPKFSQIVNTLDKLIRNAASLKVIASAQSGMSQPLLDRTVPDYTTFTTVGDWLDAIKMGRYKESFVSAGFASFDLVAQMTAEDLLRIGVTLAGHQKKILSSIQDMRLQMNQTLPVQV

[5] = biological target: panel of 255 wild-type kinases (Homo sapiens, UniProt Q5VT25); conditions: MRCKα, 1 µmol/L single concentration, cited from earlier work
[6] = biological target: panel of 255 wild-type kinases (Homo sapiens, UniProt Q8TDX7); conditions: NEK7, 1 µmol/L single concentration, cited from earlier work
[7] = biological target: T2, panel of 255 wild-type kinases (Homo sapiens, UniProt Q96PN8); conditions: kinase TSSK3, 1 µmol/L single concentration, cited from earlier work
T2 sequence (Q96PN8 1-268): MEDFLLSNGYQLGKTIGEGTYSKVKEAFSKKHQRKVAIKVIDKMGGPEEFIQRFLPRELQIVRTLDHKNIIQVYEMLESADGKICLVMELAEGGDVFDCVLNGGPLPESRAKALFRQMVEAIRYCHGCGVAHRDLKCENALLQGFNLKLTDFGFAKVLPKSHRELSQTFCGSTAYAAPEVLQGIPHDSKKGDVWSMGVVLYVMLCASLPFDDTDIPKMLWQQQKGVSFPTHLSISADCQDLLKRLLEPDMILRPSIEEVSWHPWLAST

[8] = biological target: panel of 255 wild-type kinases (Homo sapiens, UniProt Q9NQU5); conditions: PAK6, 1 µmol/L single concentration, cited from earlier work
[9] = biological target: T3, panel of 255 wild-type kinases (Homo sapiens, UniProt Q9NRA0); conditions: kinase SPHK2, 1 µmol/L single concentration, cited from earlier work
T3 sequence (Q9NRA0 1-654): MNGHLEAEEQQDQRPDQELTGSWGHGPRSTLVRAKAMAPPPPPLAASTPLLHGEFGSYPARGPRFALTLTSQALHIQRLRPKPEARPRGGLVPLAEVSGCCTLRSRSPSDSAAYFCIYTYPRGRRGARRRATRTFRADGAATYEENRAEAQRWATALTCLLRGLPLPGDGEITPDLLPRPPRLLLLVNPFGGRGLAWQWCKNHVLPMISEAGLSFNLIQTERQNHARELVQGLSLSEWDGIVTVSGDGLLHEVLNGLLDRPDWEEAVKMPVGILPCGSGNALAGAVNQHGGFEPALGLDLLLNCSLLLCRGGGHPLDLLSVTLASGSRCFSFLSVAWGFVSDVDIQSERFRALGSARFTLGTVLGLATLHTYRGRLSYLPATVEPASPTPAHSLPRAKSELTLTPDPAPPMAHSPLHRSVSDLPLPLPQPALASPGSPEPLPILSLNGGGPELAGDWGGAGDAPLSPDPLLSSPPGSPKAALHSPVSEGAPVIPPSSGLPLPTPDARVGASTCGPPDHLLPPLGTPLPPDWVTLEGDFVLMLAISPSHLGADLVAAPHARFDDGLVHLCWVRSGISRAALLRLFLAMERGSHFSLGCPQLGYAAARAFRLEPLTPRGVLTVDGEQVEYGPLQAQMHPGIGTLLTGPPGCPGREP

[10] = biological target: panel of 255 wild-type kinases (Homo sapiens, UniProt Q9P286); conditions: PAK5, 1 µmol/L single concentration, cited from earlier work
[11] = ref DOI: 10.1158/1535-7163.MCT-18-0877
[12] = ref DOI: 10.1371/journal.pone.0092146

| SMILES | %-inhibition at 1 µmol/L, CRIK [1, 11] [%] | %-inhibition at 1 µmol/L, PKCγ [2, 11] [%] | %-inhibition at 1 µmol/L, FMS [3, 11] [%] | %-inhibition at 1 µmol/L, EPHB3 [4, 11] [%] | %-inhibition, MRCKα [5, 11] [%] | %-inhibition, NEK7 [6, 11] [%] | %-inhibition at 1 µmol/L, TSSK3 [7, 11] [%] | %-inhibition, PAK6 [8, 11] [%] | %-inhibition at 1 µmol/L, SPHK2 [9, 11] [%] | %-inhibition, PAK5 [10, 11] [%] | %-inhibition at 1 µmol/L, CRIK [1, 12] [%] | %-inhibition at 1 µmol/L, PKCγ [2, 12] [%] | %-inhibition at 1 µmol/L, FMS [3, 12] [%] | %-inhibition at 1 µmol/L, EPHB3 [4, 12] [%] | %-inhibition, MRCKα [5, 12] [%] | %-inhibition, NEK7 [6, 12] [%] | %-inhibition at 1 µmol/L, TSSK3 [7, 12] [%] | %-inhibition, PAK6 [8, 12] [%] | %-inhibition at 1 µmol/L, SPHK2 [9, 12] [%] | %-inhibition, PAK5 [10, 12] [%] |
| --- | --- | --- | --- | --- | --- | --- | --- | --- | --- | --- | --- | --- | --- | --- | --- | --- | --- | --- | --- | --- |
| C=CC(=O)N1CCC[C@@H](n2nc(-c3ccc(Oc4ccccc4)cc3)c3c(N)ncnc32)C1 [ibrutinib] | -0.165 | 0.797 | 19 | 3 | -0.621 | 0.69 | -4 | 9 | 10 | 12 |  |  |  |  |  |  |  |  |  |  |
| CC(=O)Nc1cccc(-n2c(=O)n(C3CC3)c(=O)c3c(Nc4ccc(I)cc4F)n(C)c(=O)c(C)c32)c1 [trametinib] |  |  |  |  |  |  |  |  |  |  | -4.25 | 0.381 | -4 | -5.47 | -0.565 | 1.63 | -8 | 8 | -14 | -2.62 |
| Cc1cc(Nc2ncc(Cl)c(Nc3ccccc3S(=O)(=O)C(C)C)n2)c(OC(C)C)cc1C1CCNCC1 [ceritinib] | -0.933 | -1.46 | 55 | -1 | 1.61 | -0.251 | 8 | 18 | 6.4 | 15 |  |  |  |  |  |  |  |  |  |  |
| C[C@@H](Oc1cc(-c2cnn(C3CCNCC3)c2)cnc1N)c1c(Cl)ccc(F)c1Cl [crizotinib] |  |  |  |  |  |  |  |  |  |  | -12 | -0.662 | 92 | 5 | -8 | -5.3 | -0.601 | 3 | 8 | 7 |
| C=CC(=O)Nc1cc(Nc2nccc(-c3cn(C)c4ccccc34)n2)c(OC)cc1N(C)CCN(C)C [osimertinib] | 7 | 14 | 47 | -0.0464 | -4.55 | 0.703 | -0.941 | 7 | 15 | 6 |  |  |  |  |  |  |  |  |  |  |
| CCCS(=O)(=O)Nc1ccc(F)c(C(=O)c2c[nH]c3ncc(-c4ccc(Cl)cc4)cc23)c1F [vemurafenib] |  |  |  |  |  |  |  |  |  |  | -6 | -4.39 | 6 | 2 | 0.383 | -3.56 | -3.19 | -7 | 8 | -1.23 |
| O=C(c1ccc(F)c(F)c1Nc1ccc(I)cc1F)N1CC(O)([C@@H]2CCCCN2)C1 [cobimetinib] | 0.417 | -1.52 | 5 | 0.898 | -7 | 1.68 | -5 | 2 | 11 | 0.678 |  |  |  |  |  |  |  |  |  |  |
